From US20070219178A1, “PREVENTIVE OR THERAPEUTIC AGENTS FOR MULTIPLE SCLEROSIS” (Eisai Co., Ltd., priority 2003, published 2007)

Key:
[1] = test system: experimental allergic encephalomyelitis (EAE) model; experiment: Experimental allergic encephalomyelitis (EAE) model, EAE scores; assay type: in vivo, Male C57BL/6 mice; conditions: MOG peptide-immunized mice; oral, 30 mg/kg in 0.5% MC, 10 ml/kg/administration, twice a day from post-immunization day 7; FIG. 1 and 2
[2] = target: T1, Porcine kidney-derived DPP-IV (Sus scrofa, UniProt P22411); experiment: DPPIV-inhibiting activity assay; assay type: biochemical; conditions: porcine kidney DPP-IV 10 mU/ml, Gly-Pro-p-nitroanilide 0.33 mM, 20 minutes, absorbance at 405 nm
T1 construct: Porcine kidney-derived DPP-IV was dissolved in a reaction buffer; from tissue; host or cells: porcine kidney
T1 sequence (P22411 whole entry): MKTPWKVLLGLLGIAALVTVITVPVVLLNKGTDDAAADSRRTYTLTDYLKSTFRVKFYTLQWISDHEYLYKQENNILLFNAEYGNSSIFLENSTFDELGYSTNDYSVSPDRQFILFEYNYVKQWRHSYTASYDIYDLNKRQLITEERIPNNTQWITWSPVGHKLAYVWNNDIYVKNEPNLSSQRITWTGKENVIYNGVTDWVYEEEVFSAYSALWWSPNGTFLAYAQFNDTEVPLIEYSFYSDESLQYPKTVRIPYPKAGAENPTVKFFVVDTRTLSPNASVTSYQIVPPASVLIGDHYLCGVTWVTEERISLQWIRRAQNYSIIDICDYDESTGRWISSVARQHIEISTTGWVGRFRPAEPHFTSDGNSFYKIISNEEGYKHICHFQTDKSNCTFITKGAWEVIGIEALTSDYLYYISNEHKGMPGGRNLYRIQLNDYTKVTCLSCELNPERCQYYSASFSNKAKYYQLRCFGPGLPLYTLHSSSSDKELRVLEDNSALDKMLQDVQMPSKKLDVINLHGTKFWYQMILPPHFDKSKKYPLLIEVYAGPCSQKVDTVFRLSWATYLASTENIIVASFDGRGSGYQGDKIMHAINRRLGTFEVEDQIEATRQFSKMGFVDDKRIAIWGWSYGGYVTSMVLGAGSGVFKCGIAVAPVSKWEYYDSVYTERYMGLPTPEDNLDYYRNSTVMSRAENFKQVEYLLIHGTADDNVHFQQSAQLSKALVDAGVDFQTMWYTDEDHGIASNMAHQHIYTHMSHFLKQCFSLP
Method: DPPIV-Inhibiting Activity Assay
Porcine kidney-derived DPP-IV was dissolved in a reaction buffer (50 mM Tris-HCl (pH 7.4)/0.1% BSA) at a concentration of 10 mU/ml. After 110 μl of this solution had been combined with 15 μl of an agent, the mixture was incubated at room temperature for 20 minutes. 25 μl of 2 mM Gly-Pro-p-nitroanilide was added (to a final concentration of 0.33 mM) to the solution to initiate the enzyme reaction. The reaction time was 20 minutes. 25 μl of IN phosphoric acid solution was added to the reaction solution to quench the reaction.

Compound	effect on development of EAE symptoms compared to control group (MC solution) [1]	IC50 [2]
CC#CCn1c(N2CCNCC2)nc2c1c(=O)n(C)c(=O)n2C [Compound 1X, 7-(2-butynyl)-1,3-dimethyl-8-(piperazin-1-yl)-3,7-dihydropurine-2,6-dione]	definite suppressing effects	
Methyl 2-[7-(2-butynyl)-1-methyl-6-oxo-8-(piperazin-1-yl)-6,7-dihydro-1H-purin-2-yloxy]phenylacetate trifluoroacetate [Example 4]		0.211 µM
CC#CCn1c(N2CCNCC2)nc2nc(Oc3ccccc3C(N)=O)n(C)c(=O)c21 [Example 122, 2-[7-(2-Butynyl)-1-methyl-6-oxo-8-(piperazin-1-yl)-6,7-dihydro-1H-purin-2-yloxy]benzamide]	definite suppressing effects	
CC#CCn1c(N2CCCC(N)C2)nc2cnn(C)c(=O)c21.O=C(O)C(F)(F)F (stereo not shown) [Example 120, 2-(3-Aminopiperidin-1-yl)-3-(2-butynyl)-5-methyl-3,5-dihydroimidazo[4,5-d]pyridazin-4-one trifluoroacetate]	definite suppressing effects	
